Usually IC50 stands for the point on the concentration scale where inhibition reaches its midpoint. What is called melting point is the temperature of the solid-liquid transition.

Bounds are passed on as bounds.

In data set [1] the target is T1, Recombinant human protein tyrosine phosphatase 1B (Homo sapiens, UniProt P18031).
T1 construct: purchased UBI
T1 sequence (P18031 1-435): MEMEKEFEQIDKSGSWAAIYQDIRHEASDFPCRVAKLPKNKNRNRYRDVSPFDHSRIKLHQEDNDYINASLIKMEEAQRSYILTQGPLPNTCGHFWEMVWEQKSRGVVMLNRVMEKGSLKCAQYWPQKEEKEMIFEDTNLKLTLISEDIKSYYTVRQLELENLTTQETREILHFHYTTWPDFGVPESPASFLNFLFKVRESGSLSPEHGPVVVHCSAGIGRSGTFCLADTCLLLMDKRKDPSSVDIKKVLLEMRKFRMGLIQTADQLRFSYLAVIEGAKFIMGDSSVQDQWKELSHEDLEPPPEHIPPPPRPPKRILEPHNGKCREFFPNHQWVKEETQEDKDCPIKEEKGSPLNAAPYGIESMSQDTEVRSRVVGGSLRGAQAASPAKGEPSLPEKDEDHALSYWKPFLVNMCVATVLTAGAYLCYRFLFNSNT
Kind of data set: Protein tyrosine phosphatase 1B inhibitory activity (malachite green, phosphorylated insulin receptor peptide substrate). It counts as biochemical. As to conditions: recombinant human PTP1B, 60 min room temperature, absorbance 650 nm. As to the method: Preparation of Assay Buffer:
A 50 mM Tris-HCl buffer (pH 7.5), 50 mM NaCl and 3 mM dithiothreitol (DTT) were prepared.
[…] 0.1, 0.3, 1, 3 and 10 μM of the test compound were prepared and diluted with the above-mentioned assay buffer to the final dimethyl sulfoxide (DMSO) concentration of not more than 1%. As the control, the assay buffer was used.
Preparation of Substrate:
Recombinant human protein tyrosine phosphatase 1B (manufactured by UBI) was diluted with the above-mentioned assay buffer (1.2 ng/25 μl).
The sample (10 μl) prepared as mentioned above and a substrate (25 μl) were successively added to a 96 well plate, and the enzyme (25 μl) prepared as mentioned above was added and mixed. The mixture was incubated at room temperature for 60 min and a malachite green (120 μl, Biomol), which is a color reagent, was added. The mixture was further incubated at room temperature for 20 min to allow for color development. An absorbance at 650 nm was measured on a plate reader based on which the protein tyrosine phosphatase 1B inhibitory activity of the test compound was evaluated.

With `CCCC(CCC)c1ccc(Cn2cc(-c3csc(CN4CCN(c5cccc(C(=O)O)c5)CC4)n3)c3ccccc32)cc1` [Example 1-172], the melting point lay in the range of 107 to 110 °C. In data set [1], the 50% inhibitory concentration (IC50) was found to be 0.28 µM.
For the molecule `CCCC(CCC)c1ccc(OCc2ccc(-c3csc(Cn4nc(C(=O)O)cc4C(C)(C)C)n3)cc2)cc1` [Example 1-178], the melting point is 195 to 196.5 °C. For the same molecule, in data set [1], the IC50 was 0.44 µM.
In the case of `CCCC(CCC)c1ccc(OCc2ccc(-c3csc(CC4CCN(c5ccc(C(=O)O)cc5)CC4)n3)cc2)cc1` [Example 1-181], the melting point fell in the range of 174 to 175 °C. Also, the IC50 in data set [1] is 0.2 µM.
Regarding `CCCC(CCC)c1ccc(Cn2cc(-c3csc(Cn4cc(C(=O)O)c5ccccc54)n3)c3ccccc32)cc1` [Example 1-182], the melting point lay in the range of 148 to 152 °C. Moreover, in data set [1], the IC50 came to 0.19 µM.
Molecule `CCC(CC)c1ccc(COc2ccc(-c3csc(CN(CC(=O)O)Cc4ccc(F)cc4)n3)cc2)cc1` [Example 3-14] had a melting point of 153 to 155 °C. Further, the IC50 in data set [1] is 0.38 µM.
`CCCC(CCC)c1ccc(COc2ccc(-c3csc(CN4Cc5ccccc5C[C@H]4C(=O)O)n3)cc2)cc1` [Example 3-26] yielded a melting point of 90 to 93 °C. Also, in data set [1], the 50% inhibitory concentration (IC50) is 0.11 µM.
`CN(C[C@H]1CC[C@H](c2ccc(Cl)cc2)CC1)c1ccc(-c2csc(CN(CC(=O)O)Cc3ccccc3)n2)cc1` [Example 3-34]: the melting point is 180 to 182 °C. Moreover, in data set [1], the IC50 was found to be 0.16 µM.
In turn, `CN(Cc1ccc([C@H]2CC[C@H](C)CC2)cc1)c1ccc(-c2csc(CN3CCC(C(=O)O)(c4ccccc4)CC3)n2)cc1` [Example 3-69] yielded a melting point of 229 to 231 °C. Further, the half-maximal inhibitory concentration (IC50) in data set [1] came out at 0.16 µM.
Turning to `CN(C[C@H]1CC[C@H](c2ccc(Cl)cc2)CC1)c1ccc(-c2csc(CN3CCC(C(=O)O)(c4ccccc4)CC3)n2)cc1` [Example 3-70], the melting point is 167 to 170 °C (dec.). Moreover, the IC50 in data set [1] worked out at 0.16 µM.
Molecule `CN(Cc1ccc([C@H]2CC[C@H](C)CC2)cc1)c1ccc(-c2csc(CN3Cc4ccccc4CC3C(=O)O)n2)cc1` (stereo partly drawn) [Example 3-71] showed a melting point of 202 to 205 °C. Further, the 50% inhibitory concentration (IC50) in data set [1] amounted to 0.095 µM.
`CCCC(CCC)c1ccc(CN(C)c2ccc(-c3csc(CN(C)[C@H](C(=O)O)c4ccccc4)n3)cc2)cc1` [Example 3-87] returned a melting point of 146 °C. In data set [1], the IC50 is 0.21 µM.
Consider `CCCC(CCC)c1ccc(OCc2ccc(-c3csc(CN(CC(=O)O)Cc4nc5ccccc5[nH]4)c3)cc2)cc1` [Example 4-6], for which the melting point was in the range of 153 to 155 °C. Further, the half-inhibitory concentration (IC50) in data set [1] came out at 0.092 µM.
For the molecule `CCCC(CCC)c1ccc(OCc2ccc(-c3ccc(CN(CC(=O)O)CC(=O)Nc4ccc(C(C)C)cc4)s3)cc2)cc1` [Example 4-9], the melting point lay in the range of 172 to 174 °C. The half-inhibitory concentration (IC50) in data set [1] came out at 0.12 µM.
`CCCC(CCC)c1ccc(OCc2ccc(-c3ccc(C(=O)N(CC(=O)O)Cc4nc5ccccc5n4C)s3)cc2)cc1` [Example 4-42] came in with a melting point of 185 to 188 °C. Also, the concentration for half-maximal inhibition (IC50) in data set [1] was 0.17 µM.
Molecule `CCCC(CCC)c1ccc(OCc2ccc(-c3ccc(C(=O)N(CC(=O)O)Cc4ccc(C(C)C)cc4)s3)cc2)cc1` [Example 4-44] showed a melting point of 134 to 136 °C. Besides, the IC50 in data set [1] was 0.12 µM.
On to `CCCC(CCC)c1ccc(OCc2ccc(-c3ccc(C(=O)N(CC(=O)O)Cc4ccc(N(C)C)cc4)s3)cc2)cc1` [Example 4-45], for which the melting point is 137 to 139 °C. Further, the IC50 in data set [1] is 0.27 µM.
Turning to `CCCC(CCC)c1ccc(OCc2ccc(-c3ccc(C(=O)N4CCC(c5ccc(C(=O)O)cc5)CC4)s3)cc2)cc1` [Example 4-53], the melting point lay within 176 to 178 °C. The half-maximal inhibitory concentration (IC50) in data set [1] came to 0.07 µM.
`CCCC(CCC)c1ccc(OCc2ccc(-c3csc(CN(CC(=O)O)Cc4nc5ccccc5n4C)c3)cc2)cc1.Cl` [Example 4-54] had a melting point of 165.7 to 166.8 °C. The IC50 in data set [1] is 0.14 µM.
As for `CCCC(CCC)c1ccc(OCc2ccc(-c3csc(CN(CC(=O)O)Cc4nc5ccccc5n4C)c3)cc2)cc1.O=S(=O)(O)O` [Example 4-55], the melting point lay within 137.5 to 141.5 °C. Further, in data set [1], the IC50 was 0.17 µM.
In the case of `CCCC(CCC)c1ccc(OCc2ccc(-c3csc(COc4cc(C(=O)O)ccc4NC(=O)C(C)C)c3)cc2)cc1` [Example 4-57], the melting point was 153.7 to 154.9 °C. The IC50 in data set [1] was 0.17 µM.
With `CCCC(CCC)c1ccc(OCc2ccc(-c3csc(COc4ccc(C(=O)O)cc4)c3)cc2)cc1` [Example 4-58], the melting point fell in the range of 194.2 to 195.5 °C. Besides, the IC50 in data set [1] amounted to 0.19 µM.
`CCCC(CCC)c1ccc(OCc2ccc(-c3csc(CSc4ccc(C(=O)O)cc4)c3)cc2)cc1` [Example 4-60] displayed a melting point of 133.9 to 135.1 °C. Further, the IC50 in data set [1] is below 0.1 µM.
In turn, `CCCC(CCC)c1ccc(OCc2ccc(-c3csc(COc4cc(C(=O)O)ccc4N)c3)cc2)cc1` [Example 4-61] had a melting point of 156.5 to 165.5 °C. Further, in data set [1], the IC50 was 0.25 µM.
The corresponding values for `Cl.O=C(O)C1(c2ccccc2)CCN(Cc2ccc(-c3cn(Cc4ccc(C5CCCCC5)cc4)c4ccccc34)s2)CC1` [Example 4-62] are 227.3 to 233.6 °C and 0.45 µM.
Taken in the same sequence, the figures for `Cl.O=C(O)CN(Cc1ccccc1)Cc1ccc(-c2cn(Cc3ccc(C4CCCCC4)cc3)c3ccccc23)s1` [Example 4-63] were 161 to 164.3 °C and 0.42 µM.
Taken in the same sequence, the figures for `CCCC(CCC)c1ccc(OCc2ccc(-c3csc(CN(CC(=O)O)S(=O)(=O)N(C)c4ccccc4)c3)cc2)cc1` [Example 4-64] were 139 to 140.2 °C and 0.24 µM.
In turn, `CCN(Cc1ccc(C2CCCCC2)cc1)c1ccc(-c2ccc(CN(CC(=O)O)Cc3ccccn3)s2)cc1` [Example 4-66] gave a melting point of 128 to 131 °C. In data set [1], the half-maximal inhibitory concentration (IC50) stood at 0.45 µM.
As to `CCN(Cc1ccc(C2CCCCC2)cc1)c1ccc(-c2ccc(CN(CCOc3ccccc3)CC(=O)O)s2)cc1` [Example 4-67], the melting point lay in the range of 141 to 144 °C. Further, the 50% inhibitory concentration (IC50) in data set [1] stood at 0.23 µM.
For `CCN(C[C@H]1CC[C@H](c2ccc(C(C)(C)C)cc2)CC1)c1ccc(-c2csc(CN3CCC(c4ccc(C(=O)O)cc4)CC3)c2)cc1` [Example 4-68], the melting point is 225 to 229 °C (dec.). Moreover, in data set [1], the IC50 is below 0.1 µM.
For the molecule `CCCC(CCC)c1ccc(OCc2ccc(-c3csc(CN(CC(=O)O)C(=O)COc4ccc(C(C)C)cc4)c3)cc2)cc1` [Example 4-69], the melting point is 146 to 152 °C. Besides, the IC50 in data set [1] turned out to be 0.15 µM.
Taken in the same sequence, the figures for `CCCC(CCC)c1ccc(OCc2ccc(-c3csc(CN(CC(=O)O)C(=O)c4ccc(C(C)C)cc4)c3)cc2)cc1` [Example 4-70] were 109 to 111 °C and 0.17 µM.
Consider `CCCC(CCC)c1ccc(OCc2cccc(-c3csc(CN4CCc5ccc(C(=O)O)cc5C4)c3)c2)cc1` [Example 4-73], for which the melting point lay within 69.4 to 78.3 °C. In data set [1], the half-inhibitory concentration (IC50) amounted to 0.19 µM.
`C[C@H]1CC[C@H](c2ccc(COc3ccc(-c4ccc(CN5CCN(c6ccc(C(=O)O)cc6)CC5)s4)cc3)cc2)CC1` [Example 4-74] returned a melting point of 242.4 to 265.9 °C. In addition, the IC50 in data set [1] worked out at 0.11 µM.
Turning to `CCCC(CCC)c1ccc(OCc2ccc(-c3ccc(CN(CC(=O)O)Cc4cc(C(F)(F)F)ccc4Cl)s3)cc2)cc1` [Example 4-75], the melting point is 92.6 to 94.7 °C. Further, the IC50 in data set [1] is below 0.1 µM.
`CCCC(CCC)c1ccc(OCc2ccc(-c3ccc(CN(CC(=O)O)Cc4ccc(OC)cc4)s3)cc2)cc1` [Example 4-77]: the melting point is 195.7 to 196.8 °C. Besides, the IC50 in data set [1] came out at 0.4 µM.
Taken in the same sequence, the figures for `CCCC(CCC)c1ccc(OCc2ccc(-c3ccc(CN(CC(=O)O)Cc4ccc(SC)cc4)s3)cc2)cc1` [Example 4-78] were 202.7 to 204.3 °C and 0.38 µM.
For `C[C@H]1CC[C@H](c2ccc(COc3ccc(-c4ccc(CN(CC5CCCCC5)S(=O)(=O)c5ccc(C(=O)O)cc5)s4)cc3)cc2)CC1` [Example 4-79], the melting point lay within 234 to 241.8 °C. Further, the IC50 in data set [1] is below 0.1 µM.
The molecule `C[C@H]1CC[C@H](c2ccc(COc3ccc(-c4ccc(CN(CC5CCCCC5)C(=O)Nc5ccc(C(=O)O)cc5)s4)cc3)cc2)CC1` [Example 4-80] came in with a melting point of 168 to 169.9 °C. Moreover, in data set [1], the IC50 is below 0.1 µM.
`CCCC(CCC)c1ccc(OCc2ccc(-c3ccc(CN(CC(=O)OCC)CC(=O)c4ccc(N5CCCC5)cc4)s3)cc2)cc1.Cl` [Example 4-82]: the melting point lay in the range of 75.3 to 79.3 °C. Also, in data set [1], the half-inhibitory concentration (IC50) was found to be 0.48 µM.
